# In patent US5902794A (priority 1997, dated 1999):
# How the values were obtained:
# c-myc protein = c-myc protein level, Western blotting (FIG. 9B); assay type: cell-based, human; settings: 5 micromol/L, three days
# Procedure: The cells were grown in suspension culture in RPMI 1640 medium supplemented with 10% fetal bovine serum, penicillin (50 U/ml), streptomycin ([…]), 10 mmol/L HEPES buffer, and extra glutamine. […] Surface antigen analysis of HL-60 cells was performed by flow cytometry using a panel of monoclonal antibodies reactive with either myeloid cells or monocytic cells. Terminal deoxynucleotidyl transferase (TdT) was assayed by an immunoperoxidase method using a TdT fluorescence kit. Western blotting of c-myc protein was performed using c-myc antibody 15206D11 (Scripps Clinic and Research Foundation, LaJolla, Calif.).
# M marker proteins of known molecular weight. […] The resulting supernatants were used as cell lysates. […] ND=nondetectable.
# [1] = system: HT-29 colon cancer cell line
# [2] = system: R^I cAMP receptor protein (LS-174T); test: photoaffinity labelling of R^I cAMP receptor protein, LS-174T; assay type: cell-based, human; settings: 10 microM, 3 days; control 1.0
# Procedure: (§1) M is marker proteins of known molecular weight.
# (§2) The incubations were carried out at 23° C. for 60 minutes in 96-well immunoplates. The reaction mixtures were then irradiated for 30 seconds at 254 nm, placing a Mineralite UVS-11 hand lamp directly onto the plate. The samples were mixed with 25 microliters of 3× sample buffer (3% SDS, 15% beta-mercaptoethanol, 30 mM Tris, 30% glycerol, 1% bromophenol blue saturated solution), boiled for 3 minutes, and centrifuged at 700×g for five minutes. The samples containing 50-100 micrograms of protein were subjected to 0.05% SDS-12% PAGE. The gels were fixed, dried, and exposed to X-ray films overnight. The protein concentrations were determined by the method of Lowry et al., (J. Biol. Chem. 193: 265-275, 1951) with bovine serum albumin as standard.
# (§3) The levels of the receptor proteins are expressed relative to the R^I level in the untreated control cells of MDA-MB-231 and LS-174T, which are each set equal to 1.0 O.D.; the scale was expanded to differentiate the lower intensity bands.
# [3] = system: R^II cAMP receptor protein (MDA-MB-231); test: photoaffinity labelling of R^II cAMP receptor protein, MDA-MB-231; assay type: cell-based, human; settings: 10 microM, 3 days; relative to control R^I
# Procedure: as §1, §2, §3
# [4] = system: p21 ras protein (MCF-7 cells); test: Western blotting of p21 ras protein in MCF-7 cells; assay type: cell-based, human; settings: 10 microM, three days
# Procedure: Western blotting of p21 protein was performed as described below. […] V is cell lysate from Ha-MuSV-transformed NIH3T3 clone 13-3B-4. M, marker proteins of known molecular weight.
# Cellular proteins present in cell extracts were separated by 12% SDS-PAGE and transferred to nitrocellulose sheets in transfer buffer (25 mM Tris, 192 mM glycine, 20% methanol, pH 7.4). Nitrocellulose sheets were washed and first incubated with 3% bovine serum albumin in NTE-NP40 (50 mM Tris-HCl, pH 7.5, 150 mM NaCl, 2 mM EDTA, 0.1% Nonidet P-40) for three hours at 37° C. and then sequentially incubated with medium containing p21 monoclonal antiserum Y13-259 directed against the Ha-MuSV-encoded p21 for sixteen hours at 4° C., rabbit anti-rat IgG for 2.5 hours in an ice-water bath, and 5×10^5 cpm/ml ^125 I-protein A for one hour in an ice-water bath. The nitrocellulose sheets were air-dried and exposed to Kodak XAR film for 12-36 hours at -20° C. Comparison of the resulting autoradiograms with others in which normal rat serum was substituted for p21 monoclonal antibody permitted identification of p21. To provide a reference p21, cell lysates were prepared from NIH 3T3 clone 13-3B-4 that had been transfected with Ha-MuSV DNA.
# The levels of p21 protein are expressed relative to the p21 level in the untreated control cells, which is set equal to 1.0 O.D.
# [5] = system: mammary tumor inductions by DMBA; test: DMBA mammary tumor induction (FIG. 8); assay type: in vivo; settings: 10 mg pellet one day before DMBA
# [6] = system: LS-174T colon cancer line; test: growth inhibition and release from inhibition, LS-174T (FIG. 3); assay type: cell-based, human
# Procedure: 1×10^5 cells/60 mm dish were seeded, and 24 hours later (Day 0), the medium was removed and fresh medium and additives were added then and every 48 hours thereafter. […] The triplicate cell count for each experimental point never varied by more than 10%.
# (§4) All breast cancer cell lines were grown in IMEM supplemented with 10% fetal bovine serum, 20 mM HEPES, penicillin-streptomycin, and extra glutamine. Colon carcinoma cell lines were grown in EMEM supplemented with 10% FBS, EMEM, NEAA, HEPES 20 mM, extra glutamine, and penicillin-streptomycin. The cells were grown at 37° C. in humidified incubators in an atmosphere of 5% CO2.
# LS-174T = test: growth of LS-174T human colon carcinoma in nude mice; assay type: in vivo; settings: nude mouse, pellet with 10 mg cAMP analogue, day 7
# Procedure: LS174T, human colon cancer line was s.c. grown in nude mice and a solid
# tumor, transplantable, was obtained.
# (§5) 8Cl-cAMP and DBcAMP were given as a 20mg pellet consisting of 10 mg of […]
# murine leukemia L1210 = test: life span of L1210-inoculated BDF1 mice; assay type: in vivo, mouse
# Excerpt: | Infusions by Harvard pumps.
# NMU-2 = test: growth of metastatic NMU-2 rat mammary carcinoma; assay type: in vivo; settings: pellet with 10 mg cAMP analogue, day 7
# Procedure: NMU2, a variant of primary hormoneresponsive NMU tumor,
# hormoneindependent, transplantable, and metastatic.
# as §5
# [7] = system: MCF-7 ras breast cancer cell line; test: synergistic growth inhibition by C-6 and C-8 analogue combination; assay type: cell-based; settings: Homo sapiens, MCF7; alone, 1.0 μM; read-out: percentage growth inhibition of analogue added alone
# Procedure: as §4
# For cell growth experiments, 2-3×10^5 cells/60 mm dish were seeded, and 24 hours later (Day 0), the medium was removed, and fresh medium and the additives were added then and every 48 hours thereafter The compounds of the present invention were added using 100× concentrated stock solutions. At desired times, cell counts in duplicate were performed on a Coulter counter after harvesting the cells with gentle trypsinization.
# Synergism quotient was defined as the net growth inhibitory effect of the analogue combination divided by the sum of the net analogue effects on growth inhibition A quotient of >1 indicates a synergistic effect, while a quotient of <1 indicates an antagonistic effect.
# Synergism of growth inhibition was determined by treatment of
# cells with C-6 analogues and C-8 analogues alone and in combination at
# Day 0 and Day 2 and counting the cell number at Day 4
# [8] = system: transplantable DMBA-1 and MNA-2 rat mammary carcinomas; test: short-term assays with transplantable rat mammary carcinomas; assay type: in vivo; settings: 10-mg pellet, within one week
structure (smiles),measurement,setting,value
Nc1ncnc2c1nc(Cl)n2[C@@H]1O[C@@H]2COP(=O)(O)O[C@H]2[C@H]1O [8-Cl-cAMP],"c-myc protein level, in words",c-myc protein,marked reduction of c-myc protein level
same,8-Cl-adenosine in cell extracts,[1],no 8-Cl-adenosine was present
same,8-Cl-adenosine in cell extracts or medium,[1],8-Cl-adenosine was not detected
same,8-Cl-adenosine in medium,[1],no 8-Cl-adenosine was present
same,cell penetration of intact compound,[1],penetrated the cell
same,R^I relative level,[2],0.20 ± 0.02
same,R^II relative level,[3],0.15 ± 0.01
same,"p21 level, in words",[4],markedly decreased level of p21
same,reduction in the total number of tumors produced,[5],70%
same,mechanism of growth inhibition / cell viability,[6],decrease in the rate of replication without affecting cell viability
same,cell growth during treatment,[6]; 8-Cl-cAMP 10 microM or 8-Cl-adenosine 5 microM,marked reduction in cell growth
same,growth after cessation of treatment,[6]; after removal of additives,resumed growth almost immediately
same,Change in mean tumor volume,LS-174T,0.58 cm^3
same,Change in mean tumor volume (%),LS-174T; none = 100,60%
same,antitumor effect,"murine leukemia L1210; 104 mg/kg bolus injection, seven consecutive days",no antitumor effect
same,tolerability in L1210-bearing mice,"murine leukemia L1210; 104 mg/kg bolus, seven consecutive days",tolerated
same,increase in mean life span,"murine leukemia L1210; 104 mg/kg/day constant infusion, five days",37%
same,Change in mean tumor volume,NMU-2,1.10 cm^3
same,inhibition at 1 µM,[7],20%
same,growth inhibition,[8],40-50%
